Measured values taken from patent US20110144018A1, “AGENT FOR PROPHYLAXIS OF REFLEX SYMPATHETIC DYSTROPHY AFTER CEREBRAL APOPLEXY” (priority 2006, published 2011).

Legend:
[1] = test system: patients with hemiplegia attributed to cerebrovascular disease (stroke), post-stroke RSD (shoulder-hand syndrome); test: Test of prevention of onset of post-stroke RSD; format: in vivo, human
Description: Test subjects were 33 patients with hemiplegia attributed to cerebrovascular disease (stroke) at Brunnstrom stage III or lower in either the upper limb or a finger on admission. Patients already developing RSD (shoulder-hand syndrome) on admission and patients with pain in the shoulder joint or swollen paralyzed limbs were excluded from the test. […] On the other hand, 21 test subjects were classified into a rehabilitation alone group (control group) and compared with the EL administration group. Physical therapy and therapeutic exercise, occupational therapy, and the management of the paralyzed limbs were performed thoroughly in all the cases. […] EL administration was initiated 11 to 59 days after an attack of stroke (25.8 days on average) and continued until 5 months after the attack of stroke. The same observation period was applied to the control group. The test subjects were diagnosed as developing RSD (shoulder-hand syndrome) if they had diffuse pain not localized to the shoulder joint, edema involving skin color changes, skin temperature abnormalities, and range of motion limitations, and the practice of their rehabilitation was restricted. These criteria agreed to Veldman's diagnostic criteria or diagnostic criteria, for CRPS-type 1 provided by the International Association for the Study of Pain.
Activities of daily living (ADL) were evaluated on the basis of the Barthel Index (BI) and the range of motion (ROM) of shoulder joint. The movable range of shoulder joint (also referred to as “shoulder ROM”) was regarded as restricted (Shoulder-ROM-restrictions were present.) if either abduction or flexion was restricted in measurement. The test subjects were also examined for sensory impairment, aphasia, and unilateral spatial neglect on admission.
Statistical analysis was conducted with unpaired t-test, Fisher's exact test, or Wilcoxon test, and 5% or lower significance level was regarded as being significant.

[2] = test system: patients with hemiplegia attributed to cerebrovascular disease (stroke) who developed RSD (shoulder-hand syndrome); test: Test of treatment of post-stroke RSD; format: in vivo, human; conditions: therapeutic administration group
Description: EL was administered after the onset of RSD (shoulder-hand syndrome) in the same use and dose as in Example 1 to 11 patients with hemiplegia attributed to cerebrovascular disease (stroke) at Brunnstrom stage III or lower in either the upper limb or a finger on admission, who developed RSD (shoulder-hand syndrome). These patients were classified into a therapeutic administration group. On the other hand, the EL administration group of Example 1 was compared as a control (preventive administration group) with the therapeutic administration group.

[3] = test system: RSD triggered and developed by a trauma or surgical invasion; conditions: clinical; cited from earlier work
[4] = EL preventive administration group, 12 cases, 20 units i.m. once a week until 5 months after attack

Molecule	Incidence of RSD converted to all patients with hemiplegia attributed to stroke in the facility ([1]; EL administration group)	Incidence of RSD ([1]; EL administration initiated within 48 days after stroke)	Incidence of RSD (cases developing RSD) ([1]; EL preventive administration group, 1 of 12 cases)	Number of test subjects developing post-stroke RSD (Developed) [1, 4]	Number of test subjects not developing post-stroke RSD (Not developed) [1, 4]	No RSD, the number of persons ([1]; preventive administration group, at completion of administration)	Incidence of RSD until discharge from hospital versus unadministered patient group ([1]; repetitive administration to stroke hemiplegia patients without RSD on admission)	Barthel index at completion of EL administration compared with preventive administration group [2]	Diffuse pain, shoulder joint pain and progression of range of motion restrictions [2]	Suppression of the symptoms of RSD [2]	Effect on initial onset of RSD [3]
1-butyric acid-7-(L-2-aminobutyric acid)-26-L-aspartic acid-27-L-valine-29-L-alanine-calcitonin [EL]	approximately 1.3%	0%	8.3%	1	11	11	suppressed significantly and remarkably	significantly low	slightly suppressed	could not be suppressed completely in any case	–
O=C1O[C@H]([C@@H](O)CO)C(O)=C1O [vitamin C]	–	–	–	–	–	–	–	–	–	–	preventive effect
